# Data published in ChEMBL document CHEMBL1201862, “PubChem BioAssay data set” (2004).
#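 Cultured in 96-well plates, cells were exposed to test compound for 48 hours across five concentrations. Here, GI50 denotes the concentration required for 50% inhibition of growth.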 Activity calls are given as the source filed them. Rule as the data show it: active = GI50 up to about 1.1 µM and inactive = higher.
# What was measured:
# Assay in all cases: DTP human tumour cell line panel, 48 h
# SF-268 = test system: SF-268
# SF-539 = test system: SF-539
# SW-620 = test system: SW-620
# MOLT-4 = test system: MOLT-4
# SK-MEL-28 = test system: SK-MEL-28
# IGROV-1 = test system: IGROV-1
# HCT-15 = test system: HCT-15
# U-251 = test system: U-251
# ACHN = test system: ACHN
# OVCAR-5 = test system: OVCAR-5
# XF498 = test system: XF498
# RXF 631 = test system: RXF 631
# NCI-H23 = test system: NCI-H23
# HCT-116 = test system: HCT-116
# SNB-19 = test system: SNB-19
# HL-60 = test system: HL-60
# KM-20L2 = test system: KM-20L2
# COLO 205 = test system: COLO 205
# HCC 2998 = test system: HCC 2998
# TK-10 = test system: TK-10
# RPMI-8226 = test system: RPMI-8226
# NCI-H460 = test system: NCI-H460
# OVCAR-4 = test system: OVCAR-4
# UO-31 = test system: UO-31
# SF-295 = test system: SF-295
# HOP-92 = test system: HOP-92
# SK-MEL-2 = test system: SK-MEL-2
# NCI-H522 = test system: NCI-H522
# LOX IMVI = test system: LOX IMVI
# Malme-3M = test system: Malme-3M
# UACC-257 = test system: UACC-257
# 786-0 = test system: 786-0
# M14 = test system: M14
# OVCAR-3 = test system: OVCAR-3
# HT-29 = test system: HT-29
# NCI-H226 = test system: NCI-H226
# SNB-75 = test system: SNB-75
# A549 = test system: A549
# SK-OV-3 = test system: SK-OV-3
# K562 = test system: K562
# HOP-62 = test system: HOP-62
# UACC-62 = test system: UACC-62
# DMS-273 = test system: DMS-273
# LXFL 529 = test system: LXFL 529
# OVCAR-8 = test system: OVCAR-8
# KM12 = test system: KM12
# SN12C = test system: SN12C
# DLD-1 = test system: DLD-1
# CAKI-1 = test system: CAKI-1
# SNB-78 = test system: SNB-78
# HOP-18 = test system: HOP-18
# M19-MEL = test system: M19-MEL
# A498 = test system: A498
# EKVX = test system: EKVX
# DMS-114 = test system: DMS-114
# SK-MEL-5 = test system: SK-MEL-5
# CCRF-CEM = test system: CCRF-CEM
# RXF 393 = test system: RXF 393
smiles,measurement,setting,value
COc1ccc(Nc2nc(C#N)c(N)s2)cc1,GI50,SF-268,19.9 µM (inactive)
same,GI50,SF-539,36.2 µM (inactive)
same,GI50,SW-620,46.1 µM (inactive)
same,GI50,MOLT-4,> 10 µM (inactive)
same,GI50,SK-MEL-28,> 100 µM (inactive)
same,GI50,IGROV-1,76.6 µM (inactive)
same,GI50,HCT-15,15.8 µM
same,GI50,U-251,34.2 µM (inactive)
same,GI50,ACHN,15.7 µM (inactive)
same,GI50,OVCAR-5,> 100 µM (inactive)
same,GI50,XF498,21.4 µM (inactive)
same,GI50,RXF 631,35.9 µM (inactive)
same,GI50,NCI-H23,22.5 µM (inactive)
same,GI50,HCT-116,33 µM (inactive)
same,GI50,SNB-19,49 µM (inactive)
same,GI50,HL-60,24.5 µM (inactive)
same,GI50,KM-20L2,38.5 µM (inactive)
same,GI50,COLO 205,35.9 µM (inactive)
same,GI50,HCC 2998,> 10 µM (inactive)
same,GI50,TK-10,38.2 µM (inactive)
same,GI50,RPMI-8226,18.8 µM (inactive)
same,GI50,NCI-H460,> 100 µM (inactive)
same,GI50,OVCAR-4,83.2 µM (inactive)
same,GI50,UO-31,40.8 µM (inactive)
same,GI50,SF-295,29.2 µM (inactive)
same,GI50,HOP-92,> 100 µM (inactive)
same,GI50,SK-MEL-2,33.4 µM (inactive)
same,GI50,NCI-H522,22.8 µM (inactive)
same,GI50,LOX IMVI,21.4 µM (inactive)
same,GI50,Malme-3M,91.2 µM (inactive)
same,GI50,UACC-257,17.1 µM (inactive)
same,GI50,786-0,64 µM (inactive)
same,GI50,M14,81.5 µM (inactive)
same,GI50,OVCAR-3,> 100 µM (inactive)
same,GI50,HT-29,46.8 µM (inactive)
same,GI50,NCI-H226,> 100 µM (inactive)
same,GI50,SNB-75,> 100 µM (inactive)
same,GI50,A549,27.2 µM (inactive)
same,GI50,SK-OV-3,34 µM (inactive)
same,GI50,K562,24.5 µM (inactive)
same,GI50,HOP-62,46.8 µM (inactive)
same,GI50,UACC-62,23.1 µM (inactive)
same,GI50,DMS-273,26.7 µM (inactive)
same,GI50,LXFL 529,31.9 µM (inactive)
same,GI50,OVCAR-8,78.5 µM (inactive)
same,GI50,KM12,29.9 µM (inactive)
same,GI50,SN12C,30.7 µM (inactive)
same,GI50,DLD-1,48.6 µM (inactive)
same,GI50,CAKI-1,24.6 µM (inactive)
same,GI50,SNB-78,> 100 µM (inactive)
CCCCCCCCCCCCCP(=O)(NCC(N)=O)OCC (stereo not drawn),GI50,SF-268,19.1 µM (inactive)
same,GI50,SF-539,17.4 µM (inactive)
same,GI50,SW-620,19.9 µM (inactive)
same,GI50,HOP-18,2.38 µM (inactive)
same,GI50,SK-MEL-28,18.2 µM (inactive)
same,GI50,IGROV-1,18.5 µM (inactive)
same,GI50,HCT-15,17.8 µM
same,GI50,U-251,17.3 µM (inactive)
same,GI50,ACHN,21.8 µM (inactive)
same,GI50,OVCAR-5,19.5 µM (inactive)
same,GI50,XF498,19.1 µM (inactive)
same,GI50,M19-MEL,19.7 µM (inactive)
same,GI50,RXF 631,18.9 µM (inactive)
same,GI50,NCI-H23,24.3 µM (inactive)
same,GI50,HCT-116,14.8 µM (inactive)
same,GI50,SNB-19,18.7 µM (inactive)
same,GI50,HL-60,13.8 µM (inactive)
same,GI50,KM-20L2,17.4 µM (inactive)
same,GI50,COLO 205,17.2 µM (inactive)
same,GI50,HCC 2998,20.2 µM (inactive)
same,GI50,TK-10,18.7 µM (inactive)
same,GI50,NCI-H460,20.6 µM (inactive)
same,GI50,OVCAR-4,16.7 µM (inactive)
same,GI50,UO-31,13.6 µM (inactive)
same,GI50,SF-295,17.3 µM (inactive)
same,GI50,A498,35.6 µM (inactive)
same,GI50,HOP-92,17 µM (inactive)
same,GI50,EKVX,19.2 µM (inactive)
same,GI50,SK-MEL-2,16.3 µM (inactive)
same,GI50,NCI-H522,> 10 µM (inactive)
same,GI50,LOX IMVI,> 10 µM (inactive)
same,GI50,Malme-3M,17.7 µM (inactive)
same,GI50,UACC-257,18.9 µM (inactive)
same,GI50,DMS-114,15.2 µM (inactive)
same,GI50,SK-MEL-5,18.5 µM (inactive)
same,GI50,786-0,15.4 µM (inactive)
same,GI50,M14,16.9 µM (inactive)
same,GI50,OVCAR-3,15.3 µM (inactive)
same,GI50,HT-29,17.2 µM (inactive)
same,GI50,NCI-H226,17.5 µM (inactive)
same,GI50,CCRF-CEM,22.6 µM (inactive)
same,GI50,SNB-75,5.31 µM (inactive)
same,GI50,A549,20.3 µM (inactive)
same,GI50,SK-OV-3,21.3 µM (inactive)
same,GI50,HOP-62,17.3 µM (inactive)
same,GI50,UACC-62,16.3 µM (inactive)
same,GI50,RXF 393,22.5 µM (inactive)
same,GI50,LXFL 529,16.8 µM (inactive)
same,GI50,OVCAR-8,21.4 µM (inactive)
same,GI50,KM12,18.4 µM (inactive)
same,GI50,SN12C,18.3 µM (inactive)
same,GI50,DLD-1,17.1 µM (inactive)
same,GI50,SNB-78,20 µM (inactive)
